{
  "source": "patent US11178870B2",
  "about": "(priority 2017, dated 2021)",
  "type_in_all_cases": "in vivo",
  "key": {"Magnaporthe grisea": {"tested_on": "Magnaporthe grisea", "experiment": "whole plant or invertebrate", "settings": "Pyricularia oryzae, in Oryza sativa, read-out: Test A control value"}, "Botrytis cinerea": {"tested_on": "Botrytis cinerea", "experiment": "Test Example B: Gray mold on tomato", "settings": "Gray mold on tomato, read-out: Test B control value"}, "Alternaia brassicicola": {"tested_on": "Alternaia brassicicola", "experiment": "Test Example C: Alternaria sooty spot on cabbage", "settings": "Brassica oleracea; Alternaria sooty spot on cabbage; read-out: Test C control value"}, "[1]": {"tested_on": "Blumeria graminis f. sp. hordei", "experiment": "Test Example D: Powdery mildew on barley", "settings": "Powdery mildew on barley, read-out: Test D control value"}, "Puccinia recondita": {"tested_on": "Puccinia recondita", "experiment": "Test Example E: Brown rust on wheat", "settings": "Brown rust on wheat, read-out: Test E control value"}, "Phytophthora infestans": {"tested_on": "Phytophthora infestans", "experiment": "whole plant or invertebrate", "settings": "in Solanum lycopersicum, read-out: Test F control value"}, "Plasmopara viticola": {"tested_on": "Plasmopara viticola", "experiment": "Test Example G: Downy mildew on vine", "settings": "Downy mildew on vine, 250 ppm sprayed, 2.5 ml/pot, 7 to 10 days after inoculation, read-out: Test G control value"}},
  "data": [
    {"smiles": "CCn1c(-c2c(F)cc(F)cc2F)c(-n2cnc(Cl)c2Cl)ccc1=O", "note": "[compound 136, 5-(4,5-dichloro-1H-imidazol-1-yl)-1-ethyl-6-(2,4,6-trifluorophenyl)pyridin-2(1H)-one]", "values": [
      {"measurement": "pest or weed control at 250 µg/mL", "setting": "Magnaporthe grisea", "value": "> 50", "unit": "%"},
      {"measurement": "pest or weed control at 250 µg/mL", "setting": "Botrytis cinerea", "value": "> 50", "unit": "%"},
      {"measurement": "pest or weed control at 250 µg/mL", "setting": "Alternaia brassicicola", "value": "> 50", "unit": "%"},
      {"measurement": "pest or weed control at 250 µg/mL", "setting": "[1]", "value": "> 50", "unit": "%"},
      {"measurement": "pest or weed control at 250 µg/mL", "setting": "Puccinia recondita", "value": "> 50", "unit": "%"},
      {"measurement": "pest or weed control at 250 µg/mL", "setting": "Phytophthora infestans", "value": "< 50", "unit": "%"},
      {"measurement": "pest or weed control at 250 ppm", "setting": "Plasmopara viticola", "value": "> 50", "unit": "%"}
    ]},
    {"smiles": "CCn1c(-c2c(F)cc(F)cc2F)c(-c2nn(C)cc2Br)cc(Cl)c1=O", "note": "[compound 24, 5-(4-bromo-1-methyl-1H-pyrazol-3-yl)-3-chloro-1-ethyl-6-(2,4,6-trifluorophenyl)pyridin-2(1H)-one]", "values": [
      {"measurement": "pest or weed control at 250 µg/mL", "setting": "Magnaporthe grisea", "value": "> 50", "unit": "%"},
      {"measurement": "pest or weed control at 250 µg/mL", "setting": "Botrytis cinerea", "value": "> 50", "unit": "%"},
      {"measurement": "pest or weed control at 250 µg/mL", "setting": "Alternaia brassicicola", "value": "> 50", "unit": "%"},
      {"measurement": "pest or weed control at 250 µg/mL", "setting": "[1]", "value": "> 50", "unit": "%"},
      {"measurement": "pest or weed control at 250 µg/mL", "setting": "Puccinia recondita", "value": "> 50", "unit": "%"},
      {"measurement": "pest or weed control at 250 µg/mL", "setting": "Phytophthora infestans", "value": "< 50", "unit": "%"},
      {"measurement": "pest or weed control at 250 ppm", "setting": "Plasmopara viticola", "value": "> 50", "unit": "%"}
    ]},
    {"smiles": "CCn1c(-c2c(F)cccc2F)c(-c2c[nH]cc2C#N)cc(Cl)c1=O", "note": "[compound 88, 4-(5-chloro-1-ethyl-6-oxo-2-(2,6-difluorophenyl)-1,6-dihydro-pyridin-3-yl)-1H-pyrrol-3-carbonitrile]", "values": [
      {"measurement": "pest or weed control at 250 µg/mL", "setting": "Magnaporthe grisea", "value": "< 50", "unit": "%"},
      {"measurement": "pest or weed control at 250 µg/mL", "setting": "Botrytis cinerea", "value": "< 50", "unit": "%"},
      {"measurement": "pest or weed control at 250 µg/mL", "setting": "Alternaia brassicicola", "value": "> 50", "unit": "%"},
      {"measurement": "pest or weed control at 250 µg/mL", "setting": "[1]", "value": "< 50", "unit": "%"},
      {"measurement": "pest or weed control at 250 µg/mL", "setting": "Puccinia recondita", "value": "< 50", "unit": "%"},
      {"measurement": "pest or weed control at 250 µg/mL", "setting": "Phytophthora infestans", "value": "< 50", "unit": "%"},
      {"measurement": "pest or weed control at 250 ppm", "setting": "Plasmopara viticola", "value": "< 50", "unit": "%"}
    ]},
    {"smiles": "CCn1c(-c2c(F)cc(F)cc2F)c(-c2cnco2)cc(Cl)c1=O", "note": "[compound 36, 3-chloro-1-ethyl-5-(oxazol-5-yl)-6-(2,4,6-trifluorophenyl)pyridin-2(1H)-one]", "values": [
      {"measurement": "pest or weed control at 250 µg/mL", "setting": "Magnaporthe grisea", "value": "> 50", "unit": "%"},
      {"measurement": "pest or weed control at 250 µg/mL", "setting": "Botrytis cinerea", "value": "< 50", "unit": "%"},
      {"measurement": "pest or weed control at 250 µg/mL", "setting": "Alternaia brassicicola", "value": "> 50", "unit": "%"},
      {"measurement": "pest or weed control at 250 µg/mL", "setting": "[1]", "value": "< 50", "unit": "%"},
      {"measurement": "pest or weed control at 250 µg/mL", "setting": "Puccinia recondita", "value": "> 50", "unit": "%"},
      {"measurement": "pest or weed control at 250 µg/mL", "setting": "Phytophthora infestans", "value": "< 50", "unit": "%"},
      {"measurement": "pest or weed control at 250 ppm", "setting": "Plasmopara viticola", "value": "< 50", "unit": "%"}
    ]},
    {"smiles": "CCn1c(-c2c(F)cccc2F)c(-c2cccnc2Cl)cc(Cl)c1=O", "note": "[compound 18]", "values": [
      {"measurement": "pest or weed control at 250 µg/mL", "setting": "Magnaporthe grisea", "value": "> 50", "unit": "%"},
      {"measurement": "pest or weed control at 250 µg/mL", "setting": "Botrytis cinerea", "value": "> 50", "unit": "%"},
      {"measurement": "pest or weed control at 250 µg/mL", "setting": "Alternaia brassicicola", "value": "> 50", "unit": "%"},
      {"measurement": "pest or weed control at 250 µg/mL", "setting": "[1]", "value": "> 50", "unit": "%"},
      {"measurement": "pest or weed control at 250 µg/mL", "setting": "Puccinia recondita", "value": "> 50", "unit": "%"},
      {"measurement": "pest or weed control at 250 µg/mL", "setting": "Phytophthora infestans", "value": "< 50", "unit": "%"},
      {"measurement": "pest or weed control at 250 ppm", "setting": "Plasmopara viticola", "value": "< 50", "unit": "%"}
    ]},
    {"smiles": "CCn1c(-c2c(F)cc(OC)cc2F)c(-n2cc(Cl)cn2)cc(Cl)c1=O", "note": "[compound 41, 3-chloro-5-(4-chloro-1H-pyrazol-1-yl)-6-(2,6-difluoro-4-methoxyphenyl)-1-ethylpyridin-2(1H)-one]", "values": [
      {"measurement": "pest or weed control at 250 µg/mL", "setting": "Magnaporthe grisea", "value": "> 50", "unit": "%"},
      {"measurement": "pest or weed control at 250 µg/mL", "setting": "Botrytis cinerea", "value": "> 50", "unit": "%"},
      {"measurement": "pest or weed control at 250 µg/mL", "setting": "Alternaia brassicicola", "value": "> 50", "unit": "%"},
      {"measurement": "pest or weed control at 250 µg/mL", "setting": "[1]", "value": "> 50", "unit": "%"},
      {"measurement": "pest or weed control at 250 µg/mL", "setting": "Puccinia recondita", "value": "> 50", "unit": "%"},
      {"measurement": "pest or weed control at 250 µg/mL", "setting": "Phytophthora infestans", "value": "< 50", "unit": "%"},
      {"measurement": "pest or weed control at 250 ppm", "setting": "Plasmopara viticola", "value": "< 50", "unit": "%"}
    ]},
    {"smiles": "CCn1c(-c2c(F)cc(F)cc2F)c(-n2cc(Br)cn2)cc(Cl)c1=O", "note": "[compound 70, 5-(4-bromo-1H-pyrazol-1-yl)-3-chloro-1-ethyl-6-(2,4,6-trifluorophenyl)pyridin-2(1H)-one]", "values": [
      {"measurement": "pest or weed control at 250 µg/mL", "setting": "Magnaporthe grisea", "value": "> 50", "unit": "%"},
      {"measurement": "pest or weed control at 250 µg/mL", "setting": "Botrytis cinerea", "value": "> 50", "unit": "%"},
      {"measurement": "pest or weed control at 250 µg/mL", "setting": "Alternaia brassicicola", "value": "> 50", "unit": "%"},
      {"measurement": "pest or weed control at 250 µg/mL", "setting": "[1]", "value": "> 50", "unit": "%"},
      {"measurement": "pest or weed control at 250 µg/mL", "setting": "Puccinia recondita", "value": "> 50", "unit": "%"},
      {"measurement": "pest or weed control at 250 µg/mL", "setting": "Phytophthora infestans", "value": "< 50", "unit": "%"},
      {"measurement": "pest or weed control at 250 ppm", "setting": "Plasmopara viticola", "value": "< 50", "unit": "%"}
    ]},
    {"smiles": "CCn1c(-c2c(F)cc(F)cc2F)c(-c2c(Br)cnn2C)cc(Cl)c1=O", "note": "[compound 21, 5-(4-bromo-1-methyl-1H-pyrazol-5-yl)-3-chloro-1-ethyl-6-(2,4,6-trifluorophenyl)pyridin-2(1H)-one]", "values": [
      {"measurement": "pest or weed control at 250 µg/mL", "setting": "Magnaporthe grisea", "value": "> 50", "unit": "%"},
      {"measurement": "pest or weed control at 250 µg/mL", "setting": "Botrytis cinerea", "value": "> 50", "unit": "%"},
      {"measurement": "pest or weed control at 250 µg/mL", "setting": "Alternaia brassicicola", "value": "> 50", "unit": "%"},
      {"measurement": "pest or weed control at 250 µg/mL", "setting": "[1]", "value": "> 50", "unit": "%"},
      {"measurement": "pest or weed control at 250 µg/mL", "setting": "Puccinia recondita", "value": "> 50", "unit": "%"},
      {"measurement": "pest or weed control at 250 µg/mL", "setting": "Phytophthora infestans", "value": "< 50", "unit": "%"},
      {"measurement": "pest or weed control at 250 ppm", "setting": "Plasmopara viticola", "value": "> 50", "unit": "%"}
    ]},
    {"smiles": "CCn1c(-c2c(F)cccc2F)c(-c2cccnc2Cl)ccc1=O", "note": "[compound 17]", "values": [
      {"measurement": "pest or weed control at 250 µg/mL", "setting": "Botrytis cinerea", "value": "> 50", "unit": "%"},
      {"measurement": "pest or weed control at 250 µg/mL", "setting": "[1]", "value": "> 50", "unit": "%"},
      {"measurement": "pest or weed control at 250 µg/mL", "setting": "Puccinia recondita", "value": "> 50", "unit": "%"}
    ]}
  ]
}
